According to patent US20230092890A1, “1, 3, 4-Oxadiazole derivative compounds as histone deacetylase 6 inhibitor, and the pharmaceutical composition comprising the same” (Chong Kun Dang Pharmaceutical Corp., priority 2019, published 2023):

How the values were obtained:
[1] = target: T1, HDAC1 (Homo sapiens, UniProt Q13547); assay: HDAC enzyme activity inhibition (in vitro), HDAC1 Fluorimetric Drug Discovery Assay Kit; format: biochemical; details: samples at 100, 1000 and 10000 nM; 37° C. 60 minutes; fluorescence Ex 390, Em 460; read-out: HDAC1 IC50
T1 construct: purchased Enzolifesciences BML-AK511
Procedure, shortened: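 HDAC1 was tested at 100, 1000 and 10000 nM and recombinant human HDAC6 at 0.1, 1, 10, 100 and 1000 nM. Enzyme reactions ran 60 min at 37° C, then developer was added for 30 min at 37° C, and fluorescence (Ex 390, Em 460) was read.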

[2] = target: T2, HDAC6 human recombinant (Homo sapiens, UniProt Q9UBN7); assay: HDAC enzyme activity inhibition (in vitro), HDAC6 assay; format: biochemical; details: samples at 0.1, 1, 10, 100 and 1000 nM; 37° C. 60 minutes; fluorescence Ex 390, Em 460; read-out: HDAC6 IC50
T2 construct: purchased Calbiochem 382180
T2 sequence (Q9UBN7 1-1215): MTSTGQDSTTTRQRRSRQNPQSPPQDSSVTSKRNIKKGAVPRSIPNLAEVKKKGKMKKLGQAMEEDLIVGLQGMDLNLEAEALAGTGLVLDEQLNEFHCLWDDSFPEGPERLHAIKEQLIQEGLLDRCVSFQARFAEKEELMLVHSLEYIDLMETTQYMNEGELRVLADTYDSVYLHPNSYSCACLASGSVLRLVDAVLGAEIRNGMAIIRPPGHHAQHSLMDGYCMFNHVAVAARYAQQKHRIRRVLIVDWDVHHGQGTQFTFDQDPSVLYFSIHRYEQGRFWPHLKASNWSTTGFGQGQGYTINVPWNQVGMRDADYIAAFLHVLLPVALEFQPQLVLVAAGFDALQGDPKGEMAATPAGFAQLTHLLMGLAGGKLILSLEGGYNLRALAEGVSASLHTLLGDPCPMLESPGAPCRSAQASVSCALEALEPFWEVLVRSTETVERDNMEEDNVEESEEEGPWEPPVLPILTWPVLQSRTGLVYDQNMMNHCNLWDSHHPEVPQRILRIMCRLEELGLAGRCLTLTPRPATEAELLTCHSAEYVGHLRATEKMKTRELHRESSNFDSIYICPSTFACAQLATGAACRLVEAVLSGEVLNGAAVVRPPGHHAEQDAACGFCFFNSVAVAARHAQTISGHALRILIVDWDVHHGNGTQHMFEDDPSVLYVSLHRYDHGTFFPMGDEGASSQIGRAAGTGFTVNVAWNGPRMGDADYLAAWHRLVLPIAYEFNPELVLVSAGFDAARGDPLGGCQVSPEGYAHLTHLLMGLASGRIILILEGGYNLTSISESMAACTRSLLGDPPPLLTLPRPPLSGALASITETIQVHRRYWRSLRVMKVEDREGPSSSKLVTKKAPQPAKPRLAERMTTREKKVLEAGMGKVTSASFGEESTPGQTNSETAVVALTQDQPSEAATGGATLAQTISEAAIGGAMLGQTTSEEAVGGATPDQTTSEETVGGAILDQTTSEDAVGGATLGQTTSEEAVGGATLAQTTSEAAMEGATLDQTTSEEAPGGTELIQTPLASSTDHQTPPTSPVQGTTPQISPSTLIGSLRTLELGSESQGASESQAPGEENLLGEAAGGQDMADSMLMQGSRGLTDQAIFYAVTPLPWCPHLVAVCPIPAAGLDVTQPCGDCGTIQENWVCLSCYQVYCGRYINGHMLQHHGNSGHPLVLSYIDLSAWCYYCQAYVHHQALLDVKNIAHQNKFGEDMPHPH
Procedure, shortened: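 HDAC6 human recombinant enzyme with fluorimetric substrate; […]. Reaction 60 min at 37° C, then developer 30 min at 37° C; fluorescence read at Ex 390/Em 460.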

T1 sequence (Q13547 whole entry): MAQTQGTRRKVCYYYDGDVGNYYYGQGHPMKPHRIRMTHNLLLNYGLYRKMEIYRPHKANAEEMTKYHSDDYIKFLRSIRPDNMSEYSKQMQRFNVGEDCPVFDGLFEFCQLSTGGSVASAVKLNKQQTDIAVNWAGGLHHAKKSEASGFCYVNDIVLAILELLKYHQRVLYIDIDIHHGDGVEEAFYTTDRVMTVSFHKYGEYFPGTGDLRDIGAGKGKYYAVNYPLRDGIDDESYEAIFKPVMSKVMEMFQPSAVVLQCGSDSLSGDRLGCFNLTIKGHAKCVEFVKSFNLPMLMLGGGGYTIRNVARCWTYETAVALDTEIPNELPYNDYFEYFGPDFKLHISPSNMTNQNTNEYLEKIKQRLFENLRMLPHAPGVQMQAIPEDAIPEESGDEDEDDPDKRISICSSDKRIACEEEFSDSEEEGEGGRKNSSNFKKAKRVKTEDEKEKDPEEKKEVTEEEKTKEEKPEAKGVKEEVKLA

SMILES	IC50 [1] [nM]	IC50 [2] [nM]
O=c1n(Cc2ccc(-c3nnc(C(F)F)o3)cn2)c2ncccc2n1C1CCN(C2COC2)CC1 [Compound 108]	> 10000	148
O=c1n(Cc2ccc(-c3nnc(C(F)(F)F)o3)cn2)c2ccccc2n1C1CC2(COC2)C1 [Compound 109, 1-(2-oxaspiro[3.3]heptane-6-yl)-3-((5-(5-(trifluoromethyl)-1,3,4-oxadiazole-2-yl)pyridine-2-yl)methyl)-1,3-dihydro-2H-benzo[d]imidazole-2-one]	> 10000	623
Cn1c(=O)n(Cc2ccc(-c3nnc(C(F)F)o3)cc2F)c2cc(-c3cccnc3)ccc21 [Compound 110, 3-(4-(5-(difluoromethyl)-1,3,4-oxadiazole-2-yl)-2-fluorobenzyl)-1-methyl-5-(pyridine-3-yl)-1,3-dihydro-2H-benzo[d]imidazole-2-one]	> 10000	234
Cn1c(=O)n(Cc2ccc(-c3nnc(C(F)F)o3)cc2F)c2cc(-c3ccncc3)ccc21 [Compound 111, 3-(4-(5-(difluoromethyl)-1,3,4-oxadiazole-2-yl)-2-fluorobenzyl)-1-methyl-5-(pyridine-4-yl)-1,3-dihydro-2H-benzo[d]imidazole-2-one]	> 10000	322
Cn1c(=O)n(Cc2ccc(-c3nnc(C(F)F)o3)cc2F)c2cc(-c3cccc(F)c3)ccc21 [Compound 112, 3-(4-(5-(difluoromethyl)-1,3,4-oxadiazole-2-yl)-2-fluorobenzyl)-5-(3-fluorophenyl)-1-m ethyl-1,3-dihydro-2H-benzo[d]imidazole-2-one]	> 10000	864
CN1CCC(n2c(=O)n(Cc3ccc(-c4nnc(C(F)F)o4)cc3F)c3cc(F)c(Br)cc32)CC1 [Compound 113, 5-bromo-1-(4-(5-(difluoromethyl)-1,3,4-oxadiazole-2-yl)-2-fluorobenzyl)-6-fluoro-3-(1-methylpiperidine-4-yl)-1,3-dihydro-2H-benzo[d]imidazole-2-one]	> 10000	65
CN1CCC(n2c(=O)n(Cc3ccc(-c4nnc(C(F)F)o4)cc3F)c3cc(F)c(-c4ccco4)cc32)CC1 [Compound 114, 1-(4-(5-(difluoromethyl)-1,3,4-oxadiazole-2-yl)-2-fluorobenzyl)-6-fluoro-5-(furan-2-yl)-3-(1-methylpiperidine-4-yl)-1,3-dihydro-2H-benzo[d]imidazole-2-one]	> 10000	88

The remaining lines, values ahead:

IC50 [1] [nM]	IC50 [2] [nM]	SMILES
> 10000	283	O=c1n(Cc2ccc(-c3nnc(C(F)F)o3)cc2F)c2ncccc2n1C1CCN(C2COC2)CC1 [Compound 104, 3-(4-(5-(difluoromethyl)-1,3,4-oxadiazole-2-yl)-2-fluorobenzyl)-1-(1-(oxetan-3-yl)piperidine-4-yl)-1,3-dihydro-2H-imidazo[4,5-b]pyridine-2-one]
> 10000	640	CN1CCC(n2c(=O)n(Cc3ccc(-c4nnc(C(F)F)o4)cc3)c3ncccc32)CC1 [Compound 105, 3-(4-(5-(difluoromethyl)-1,3,4-oxadiazole-2-yl)benzyl)-1-(1-methylpiperidine-4-yl)-1,3-dihydro-2H-imidazo[4,5-b]pyridine-2-one]
> 10000	391	O=c1n(Cc2ccc(-c3nnc(C(F)F)o3)cc2)c2ncccc2n1C1CCN(C2COC2)CC1 [Compound 106, 3-(4-(5-(difluoromethyl)-1,3,4-oxadiazole-2-yl)benzyl)-1-(1-(oxetan-3-yl)piperidine-4-yl)-1,3-dihydro-2H-imidazo[4,5-b]pyridine-2-one]
> 10000	174	CN1CCC(n2c(=O)n(Cc3ccc(-c4nnc(C(F)F)o4)cn3)c3ncccc32)CC1 [Compound 107, 3-((5-(5-(difluoromethyl)-1,3,4-oxadiazole-2-yl)pyridine-2-yl)methyl)-1-(1-methylpiperidine-4-yl)-1,3-dihydro-2H-imidazo[4,5-b]pyridine-2-one]
